Numbers after ± are expanded uncertainties.
Key:
[1] = 101 kPa, Liquid; for viscosity: Capillary tube (Ostwald / Ubbelohde) method; for mass density: Vibrating tube method
[2] = xn = mol fraction of the nth substance listed; conditions: 101 kPa, Liquid; for viscosity: Capillary tube (Ostwald / Ubbelohde) method; for mass density: Vibrating tube method

| SMILES | viscosity ([1]; 298.15 K) [mPa·s] | mass density ([1]; 298.15 K) [kg/m3] | viscosity ([1]; 303.15 K) [mPa·s] | mass density ([1]; 303.15 K) [kg/m3] | viscosity ([1]; 308.15 K) [mPa·s] | mass density ([1]; 308.15 K) [kg/m3] | viscosity ([1]; 313.15 K) [mPa·s] | mass density ([1]; 313.15 K) [kg/m3] | also measured |
| --- | --- | --- | --- | --- | --- | --- | --- | --- | --- |
| CCCCCC(C)O (stereo not drawn) [2-heptanol] | 5.296 ± 0.21 | 813.38 ± 1 | 4.315 ± 0.17 | 809.5 ± 1 | 3.535 ± 0.14 | 805.72 ± 1 | 2.96 ± 0.12 | 801.46 ± 1 |  |
| CCCCC(C)O (stereo not drawn) [2-hexanol] | 4.101 ± 0.17 | 810.14 ± 1 | 3.411 ± 0.14 | 806.13 ± 1 | 2.819 ± 0.12 | 802.06 ± 1 | 2.219 ± 0.09 | 797.96 ± 1 |  |
| CCC(C)O (stereo not drawn) [butan-2-ol] | 3.034 ± 0.12 | 803.09 ± 1 | 2.527 ± 0.1 | 798.89 ± 1 | 2.125 ± 0.086 | 795.04 ± 1 | 1.798 ± 0.073 | 790.15 ± 1 |  |
| CCC(C)O (stereo not drawn) [butan-2-ol] + NC=O |  |  |  |  |  |  |  |  | viscosity ([2]; 298.15 K, x2 = 0): 3.034 ± 0.12 mPa·s; mass density ([2]; 298.15 K, x2 = 0): 803.09 ± 1 kg/m3; viscosity ([2]; 303.15 K, x2 = 0): 2.527 ± 0.1 mPa·s; mass density ([2]; 303.15 K, x2 = 0): 798.89 ± 1 kg/m3; viscosity ([2]; 308.15 K, x2 = 0): 2.125 ± 0.086 mPa·s; mass density ([2]; 308.15 K, x2 = 0): 795.04 ± 1 kg/m3; viscosity ([2]; 313.15 K, x2 = 0): 1.798 ± 0.073 mPa·s; mass density ([2]; 313.15 K, x2 = 0): 790.15 ± 1 kg/m3 |
| NC=O [formamide] | 3.305 ± 0.13 | 1129 ± 1 | 2.975 ± 0.12 | 1125.1 ± 1 | 2.64 ± 0.11 | 1120.98 ± 1 | 2.42 ± 0.098 | 1116.85 ± 1 |  |
| NC=O [formamide] + CCCC(C)O |  |  |  |  |  |  |  |  | viscosity ([2]; 298.15 K, x1 = 1): 3.305 ± 0.13 mPa·s; mass density ([2]; 298.15 K, x1 = 1): 1129 ± 1 kg/m3; viscosity ([2]; 303.15 K, x1 = 1): 2.975 ± 0.12 mPa·s; mass density ([2]; 303.15 K, x1 = 1): 1125.1 ± 1 kg/m3; viscosity ([2]; 308.15 K, x1 = 1): 2.64 ± 0.11 mPa·s; mass density ([2]; 308.15 K, x1 = 1): 1120.98 ± 1 kg/m3; viscosity ([2]; 313.15 K, x1 = 1): 2.42 ± 0.098 mPa·s; mass density ([2]; 313.15 K, x1 = 1): 1116.85 ± 1 kg/m3 |
| NC=O [formamide] + CCCCC(C)O |  |  |  |  |  |  |  |  | viscosity ([2]; 298.15 K, x1 = 1): 3.305 ± 0.13 mPa·s; mass density ([2]; 298.15 K, x1 = 1): 1129 ± 1 kg/m3; viscosity ([2]; 303.15 K, x1 = 1): 2.975 ± 0.12 mPa·s; mass density ([2]; 303.15 K, x1 = 1): 1125.1 ± 1 kg/m3; viscosity ([2]; 308.15 K, x1 = 1): 2.64 ± 0.11 mPa·s; mass density ([2]; 308.15 K, x1 = 1): 1120.98 ± 1 kg/m3; viscosity ([2]; 313.15 K, x1 = 1): 2.42 ± 0.098 mPa·s; mass density ([2]; 313.15 K, x1 = 1): 1116.85 ± 1 kg/m3 |
| NC=O [formamide] + CCCCCC(C)O |  |  |  |  |  |  |  |  | viscosity ([2]; 298.15 K, x1 = 1): 3.305 ± 0.13 mPa·s; mass density ([2]; 298.15 K, x1 = 1): 1129 ± 1 kg/m3; viscosity ([2]; 303.15 K, x1 = 1): 2.975 ± 0.12 mPa·s; mass density ([2]; 303.15 K, x1 = 1): 1125.1 ± 1 kg/m3; viscosity ([2]; 308.15 K, x1 = 1): 2.64 ± 0.11 mPa·s; mass density ([2]; 308.15 K, x1 = 1): 1120.98 ± 1 kg/m3; viscosity ([2]; 313.15 K, x1 = 1): 2.42 ± 0.098 mPa·s; mass density ([2]; 313.15 K, x1 = 1): 1116.85 ± 1 kg/m3 |
| CCCC(C)O (stereo not drawn) [pentan-2-ol] | 3.423 ± 0.14 | 805.05 ± 1 | 2.834 ± 0.12 | 800.88 ± 1 | 2.348 ± 0.095 | 796.89 ± 1 | 1.979 ± 0.08 | 792.62 ± 1 |  |
| CC(C)O [propan-2-ol] | 2.077 ± 0.084 | 780.95 ± 1 | 1.787 ± 0.072 | 776.79 ± 1 | 1.558 ± 0.063 | 772.39 ± 1 | 1.351 ± 0.055 | 767.76 ± 1 |  |
| CC(C)O [propan-2-ol] + NC=O |  |  |  |  |  |  |  |  | viscosity ([2]; 298.15 K, x2 = 0): 2.077 ± 0.084 mPa·s; mass density ([2]; 298.15 K, x2 = 0): 780.95 ± 1 kg/m3; viscosity ([2]; 303.15 K, x2 = 0): 1.787 ± 0.072 mPa·s; mass density ([2]; 303.15 K, x2 = 0): 776.79 ± 1 kg/m3; viscosity ([2]; 308.15 K, x2 = 0): 1.558 ± 0.063 mPa·s; mass density ([2]; 308.15 K, x2 = 0): 772.39 ± 1 kg/m3; viscosity ([2]; 313.15 K, x2 = 0): 1.351 ± 0.055 mPa·s; mass density ([2]; 313.15 K, x2 = 0): 767.76 ± 1 kg/m3 |
